According to USRE48842E1, “Pyrimido-pyrrolo-oxazine-dione compound inhibitors of the cystic fibrosis transmembrane conductance regulator protein and uses therefor” (The Regents of the University of California, priority 2011, dated 2021):
Read-outs that look alike come from different tables or passages of the source.

Columns and labels:
human wildtype CFTR = human wildtype CFTR (Homo sapiens, UniProt P13569); test: Short-circuit current analysis of CFTR inhibition in CFTR-expressing FRT cells; type: cell-based; parameters: expressed in transfected cells; host or cells: Fischer rat thyroid (FRT) epithelial cells on Snapwell inserts
Sequence of human wildtype CFTR (P13569 whole entry): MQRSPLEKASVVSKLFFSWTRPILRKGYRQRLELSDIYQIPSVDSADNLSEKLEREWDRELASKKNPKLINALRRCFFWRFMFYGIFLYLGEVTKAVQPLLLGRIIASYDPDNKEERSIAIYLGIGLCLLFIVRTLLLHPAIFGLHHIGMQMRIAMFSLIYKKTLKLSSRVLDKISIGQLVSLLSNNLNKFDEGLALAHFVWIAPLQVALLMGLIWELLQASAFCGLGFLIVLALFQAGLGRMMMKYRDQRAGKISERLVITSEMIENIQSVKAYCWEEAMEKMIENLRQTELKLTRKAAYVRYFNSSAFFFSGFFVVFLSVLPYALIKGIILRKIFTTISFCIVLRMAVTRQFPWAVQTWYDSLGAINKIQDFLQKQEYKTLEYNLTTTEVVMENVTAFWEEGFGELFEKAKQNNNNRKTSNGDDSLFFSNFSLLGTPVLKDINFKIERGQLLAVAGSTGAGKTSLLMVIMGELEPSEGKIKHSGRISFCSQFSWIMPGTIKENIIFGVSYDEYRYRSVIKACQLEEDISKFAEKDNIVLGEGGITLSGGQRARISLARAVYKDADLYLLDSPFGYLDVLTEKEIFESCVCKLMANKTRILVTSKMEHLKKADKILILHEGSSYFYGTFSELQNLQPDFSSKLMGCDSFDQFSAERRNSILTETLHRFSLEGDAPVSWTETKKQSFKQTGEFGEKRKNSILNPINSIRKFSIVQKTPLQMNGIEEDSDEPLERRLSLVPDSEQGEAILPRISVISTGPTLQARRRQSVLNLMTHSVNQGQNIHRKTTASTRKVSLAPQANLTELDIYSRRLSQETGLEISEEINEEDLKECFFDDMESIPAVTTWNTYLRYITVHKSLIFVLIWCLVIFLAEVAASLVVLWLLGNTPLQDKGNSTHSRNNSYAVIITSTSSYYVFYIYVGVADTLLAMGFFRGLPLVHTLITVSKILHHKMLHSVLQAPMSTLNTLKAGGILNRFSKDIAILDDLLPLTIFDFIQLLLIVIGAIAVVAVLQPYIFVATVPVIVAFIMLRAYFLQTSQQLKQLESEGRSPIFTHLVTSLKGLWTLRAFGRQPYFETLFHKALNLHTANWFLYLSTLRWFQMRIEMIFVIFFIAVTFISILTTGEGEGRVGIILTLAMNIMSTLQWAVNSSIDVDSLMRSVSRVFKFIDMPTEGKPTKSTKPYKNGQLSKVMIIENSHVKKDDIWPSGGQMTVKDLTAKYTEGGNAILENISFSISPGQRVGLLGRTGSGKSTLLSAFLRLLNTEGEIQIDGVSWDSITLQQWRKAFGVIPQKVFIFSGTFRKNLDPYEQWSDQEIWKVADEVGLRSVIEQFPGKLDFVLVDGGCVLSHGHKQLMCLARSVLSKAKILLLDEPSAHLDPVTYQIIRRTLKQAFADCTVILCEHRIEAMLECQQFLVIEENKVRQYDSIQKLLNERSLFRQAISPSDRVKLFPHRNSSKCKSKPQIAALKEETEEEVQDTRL
Method: Short-Circuit Current—Snapwell inserts containing CFTR-expressing FRT cells were mounted in an Ussing chamber. The hemichambers contained 5 mL of buffer containing 75 mM NaCl and 75 mM Na gluconate (apical) and 150 mM NaCl (basolateral) (pH 7.3), and the basolateral membrane was permeabilized with 250 μg/mL amphotericin B, as described (see, e.g., Sonawane et al., FASEB J 2006, supra). Short-circuit current was recorded continuously using a DVC-1000 voltage clamp (World Precision Instruments) using Ag/AgCl electrodes and 3 M KCl agar bridges.
Current was measured in CFTR-expressing FRT cells in which the basolateral membrane was permeabilized and in the presence of a transepithelial chloride concentration gradient, so that current is a quantitative linear measure of CFTR function. CFTR was activated by forskolin, followed by serial additions of increasing concentrations of test compounds.
CFTR inhibition potency was measured by short-circuit current analysis in FRT epithelial cells expressing human CFTR in presence of a transepithelial chloride gradient and in which the basolateral membrane was permeabilized with amphotericin B. Under these conditions short-circuit current is proportional to CFTR chloride conductance.

[1] = Mouse pharmacokinetics and renal accumulation (LC/MS); type: in vivo
Method: Mouse Pharmacokinetics and Renal Accumulation—A compound of structure (I) was formulated at 1 mg/mL in 5% DMSO, 2.5% Tween-80 and 2.5% PEG400 in H2O, based on formulations used for compounds of similar polarity and chemical properties. Male mice in a CD1 genetic background (age 8-10 weeks, 25-35 g) were administered 300 μL of the BPO-27 formulation by intraperitoneal injection. At specified times kidneys were removed following renal arterial perfusion with PBS. Kidneys were weighed, mixed with acetic acid (100 μl per 1 g tissue) and ethyl acetate (10 mL per 1 g tissue), and homogenized. The homogenate was centrifuged at 3,000 rpm for 15 min. Calibration standards were prepared in kidney homogenates from control mice to which was added known amounts of BPO-27. The ethyl acetate-containing supernatant was dried under nitrogen and the residue was reconstituted in acetonitrile:H2O (3:1) containing 0.1% formic acid. For analysis of blood and urine, fluids were diluted with equal volume of water and extracted with ethyl acetate. LC/MS analysis was carried out as described herein.
PPQ-102 was undetectable in serum, kidney, and urine at 30-60 min after intravenous bolus administration of 300 μg PPQ-102 in mice using an LC/MS assay with sensitivity better than 100 nM. […] To improve on the drug-like properties of PPQ-102, a series of compound analogs were synthesized and tested.
BPO-27 pharmacokinetics in mice was measured following bolus intraperitoneal administration in an aqueous formulation in 5% DMSO, 2.5% Tween-80 and 2.5% PEG400 in water. BPO-27 was measured by LC/MS in kidney, blood and urine. […] The assay was linear with a detection sensitivity of better than 100 nM BPO-27. […] FIG. 11C summarizes the deduced BPO-27 concentrations in kidney, blood and urine over time. The t1/2 for disappearance of the original compound was approximately 2 h.

[2] = In vitro metabolism in hepatic microsomes (LC/MS); type: in vitro ADME, rat; settings: for compound disappearance (loss) in hepatic microsomes: 30 min, 37° C.
Method: (§1) In Vitro Metabolism in Hepatic Microsomes—A compound of structure (I) was incubated for specified times at 37° C. with rat liver microsomes (e.g., 1 mg protein/ml; Sigma-Aldrich, St. Louis, Mo.) in potassium phosphate buffer (100 mM) containing NADPH (0 or 1 mM). The mixture was then chilled on ice, and 0.5 ml of ice-cold ethyl acetate was added. Samples were centrifuged for 15 min at 3,000 rpm, and the supernatant was evaporated to dryness under nitrogen. The residue was dissolved in 150 μl mobile phase (acetonitrile:water 3:1, containing 0.1% formic acid) for LC/MS analysis. Reverse-phase HPLC separations were carried out using a Waters C18 column (2.1×100 mm, […]) equipped with a solvent delivery system (Waters model 2690, Milford, Mass.). The solvent system consisted of a linear gradient from 5 to 95% acetonitrile run over 16 min (0.2 mL/min flow rate). Mass spectra were acquired on an Alliance HT 2790+ZQ mass spectrometer using negative ion detection.
as §1, with “Liquid Chromatography/Mass Spectrometry—Compounds (each at 5 μM) were” for “In Vitro Metabolism in Hepatic Microsomes—A compound of structure (I) was”, “(1” for “(e.g., 1”, “150” for “150 μl”, “detection, scanning from 150 to 1500 Da. The electrospray ion source parameters were as follows: capillary voltage 3.5 kV (positive ion mode), cone voltage 37 V, source temperature 120° C., desolvation temperature 250° C., cone gas flow 25 L/h, and dessolvation gas flow 350 L/h.” for “detection.”
PPQ-102 is a small-molecule inhibitor of CFTR chloride conductance with efficacy in preventing and reversing cyst formation in an organ culture model of PKD (see, e.g., Tradtrantip et al., J. Med. Chem. 2009, supra; Int'l Patent Appl. Publication No. WO 2011/019737). Preliminary analysis of the metabolic stability and aqueous solubility of PPQ-102, indicated poorer metabolic stability and lower water solubility (˜2 μM in albumin-free saline) than desired for optimal drugability. In vitro metabolic stability was determined by compound incubation with hepatic microsomes at 37° C. for specified times in the absence vs. presence of NADPH, following by LC/MS analysis. Shown in FIG. 6A is PPQ-102 disappearance in hepatic microsomes in the presence of NADPH, with ˜60% disappearance in 30 min.

[3] = short-circuit current, FRT cells expressing human CFTR, forskolin-stimulated, read-out: IC50 for inhibition of CFTR chloride conductance

Row | SMILES | IC50 (human wildtype CFTR; Determined by short-circuit current assay, read-out: IC50 (μM)^B) | IC50 (human wildtype CFTR; [3]) | half-life ([1]; male, CD1, mouse, in vivo, ip, 300 μg, mice, bolus intraperitoneal administration, read-out: t1/2 for disappearance of the original compound (converted)) | compound concentration in kidney, blood and urine ([1]; mice, for many hours following single intraperitoneal dose) | compound disappearance (loss) in hepatic microsomes ([2]; in the presence of NADPH) | metabolic stability in hepatic microsomes (in words) ([2]; in the presence of NADPH) | compound in serum, kidney, and urine ([1]; 30-60 min after intravenous bolus of 300 μg in mice, LC/MS sensitivity better than 100 nM) | compound metabolized in hepatic microsomes ([2]; 4 h, in the presence of NADPH) | compound loss in hepatic microsomes ([2]; in the absence of NADPH)
1 | Cn1c(=O)c2c(-c3ccccc3)n3c(c2n(C)c1=O)C(c1ccc(Br)o1)Oc1ccc(C(=O)O)cc1-3 (racemic) [BPO-27, 6-(5-Bromofuran-2-yl)-7,9-dimethyl-8,10-dioxo-11-phenyl-7,8,9,10-tetrahydro-6H-benzo[b]pyrimido[4′,5′:3,4]pyrrolo[1,2-d][1,4]oxazine-2-carboxylic acid] | 0.008 µM | ~0.008 µM | ~2 h | greater than 4 nM | < 5% | excellent stability |  |  | 
2 | Cc1ccc(C2Nc3ccccc3-n3c(-c4ccccc4)c4c(=O)n(C)c(=O)n(C)c4c32)o1 (centres unmarked) [PPQ-102, 7,9-Dimethyl-6-(5-methylfuran-2-yl)-11-phenyl-5,6-dihydropyrimido[4′,5′-3,4]pyrrolo[1,2-a]quinoxaline-8,10-(7H,9H)-dione, reference compound] |  | 0.1 µM |  |  | ~60% |  | undetectable | > 75% | No loss
